# In paper PMC11203657, “Glyphosate-Induced Phosphonatase Operons in Soil Bacteria of the Genus Achromobacter” (International Journal of Molecular Sciences, 2024):
# Like-named read-outs stand apart in the source and are kept apart here.
# T1: PhnX19-I (Achromobacter insolitus, UniProt Z9I4E4M620)
# T1 construct: native, purified from wild-type strain, untagged; homodimer; MALDI match to OAD13647.1
# T1 sequence (Z9I4E4M620 1-273): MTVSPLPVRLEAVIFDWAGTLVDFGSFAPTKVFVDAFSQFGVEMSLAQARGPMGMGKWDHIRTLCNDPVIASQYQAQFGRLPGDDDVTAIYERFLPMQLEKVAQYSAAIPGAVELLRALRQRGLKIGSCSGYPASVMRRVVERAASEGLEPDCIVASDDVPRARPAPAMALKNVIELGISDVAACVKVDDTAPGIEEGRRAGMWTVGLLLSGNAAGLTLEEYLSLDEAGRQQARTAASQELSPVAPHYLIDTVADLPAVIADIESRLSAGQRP
# T2: PhnX19-II (Achromobacter insolitus, UniProt Z9I4E4M620)
# T2 construct: native, purified from wild-type strain, untagged; homodimer; MALDI match to OAD13647.1
# T2 sequence (Z9I4E4M620 1-273): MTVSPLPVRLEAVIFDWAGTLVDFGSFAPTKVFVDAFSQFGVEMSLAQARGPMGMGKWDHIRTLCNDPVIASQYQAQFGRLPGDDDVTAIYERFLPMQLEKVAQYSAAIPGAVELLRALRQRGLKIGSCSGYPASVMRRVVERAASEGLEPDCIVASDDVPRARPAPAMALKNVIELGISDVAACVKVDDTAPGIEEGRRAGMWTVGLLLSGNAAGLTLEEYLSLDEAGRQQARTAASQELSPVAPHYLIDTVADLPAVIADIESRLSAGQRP
# T3: PhnX16 (Achromobacter aegrifaciens, UniProt A0ABU2D8D6)
# T3 construct: gene phnX; native, purified from wild-type strain, untagged; subunit ~31 kDa, homodimer ~60-65 kDa
# T3 sequence (A0ABU2D8D6 4-276): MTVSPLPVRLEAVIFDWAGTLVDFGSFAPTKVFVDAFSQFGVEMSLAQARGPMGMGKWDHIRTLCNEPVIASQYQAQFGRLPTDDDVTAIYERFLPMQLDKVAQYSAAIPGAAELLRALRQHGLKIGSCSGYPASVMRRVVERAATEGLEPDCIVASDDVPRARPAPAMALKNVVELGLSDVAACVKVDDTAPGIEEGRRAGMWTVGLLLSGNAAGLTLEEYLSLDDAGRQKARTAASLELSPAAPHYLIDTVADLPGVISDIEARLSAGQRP
# B1: PhnX16 (Achromobacter aegrifaciens) (protein)
# chain: MTVSPLPVRLEAVIFDWAGTLVDFGSFAPTKVFVDAFSQFGVEMSLAQARGPMGMGKWDHIRTLCNEPVIASQYQAQFGRLPTDDDVTAIYERFLPMQLDKVAQYSAAIPGAAELLRALRQHGLKIGSCSGYPASVMRRVVERAATEGLEPDCIVASDDVPRARPAPAMALKNVVELGLSDVAACVKVDDTAPGIEEGRRAGMWTVGLLLSGNAAGLTLEEYLSLDDAGRQKARTAASLELSPAAPHYLIDTVADLPGVISDIEARLSAGQRP
# notes: native, purified from wild-type strain, untagged; subunit ~31 kDa, homodimer ~60-65 kDa
# B2: PhnX16R (Achromobacter aegrifaciens) (protein)
# chain: MTVSPLPVRLEAVIFDWAGTLVDFGSFAPTKVFVDAFSQFGVEMSLAQARGPMGMGKWDHIRTLCNEPVIASQYQAQFGRLPTDDDVTAIYERFLPMQLDKVAQYSAAIPGAAELLRALRQHGLKIGSCSGYPASVMRRVVERAATEGLEPDCIVASDDVPRARPAPAMALKNVVELGLSDVAACVKVDDTAPGIEEGRRAGMWTVGLLLSGNAAGLTLEEYLSLDDAGRQKARTAASLELSPAAPHYLIDTVADLPGVISDIEARLSAGQRP
# notes: recombinant full length, C-terminal His6 tag kept, pET-22b without pelB, E. coli BL21(DE3); homodimer
# Columns and labels:
# [1] = target: T1, PhnX19-I; test: inhibition kinetics, ADH/NADH-coupled PAA hydrolysis, vector method; format: biochemical; conditions: substrate PAA 0.1-5 mM, pH 7.5, 10 mM MgCl2, 25 °C
# Source text: inhibition kinetics, ADH/NADH-coupled PAA hydrolysis, vector method on PhnX19-I
# [2] = target: T2, PhnX19-II; test: as above; format: biochemical; conditions: substrate PAA 0.1-5 mM, pH 7.5, 10 mM MgCl2, 25 °C
# Source text: inhibition kinetics, ADH/NADH-coupled PAA hydrolysis, vector method on PhnX19-II
# [3] = target: T3, PhnX16; test: activation kinetics, ADH/NADH-coupled PAA hydrolysis, vector method; format: biochemical; conditions: substrate PAA 0.1-5 mM, pH 7.5, 10 mM MgCl2, 25 °C; Ka is an activation constant; competitive-type activator
# Source text: activation kinetics, ADH/NADH-coupled PAA hydrolysis, vector method on PhnX16
# [4] = target: T3, PhnX16; test: inhibition kinetics, ADH/NADH-coupled PAA hydrolysis, vector method; format: biochemical
# Source text: inhibition kinetics, ADH/NADH-coupled PAA hydrolysis, vector method on PhnX16
# [5] = substrate: O=CCP(=O)(O)O; test: purified protein; format: biochemical, Achromobacter aegrifaciens; conditions: pH 7.5, 50 mM Tris-HCl, 10 mM MgCl2, 0.1 mM DTT, 25 °C
# [6] = noncompetitive in table, uncompetitive in text, read-out: Effectors / 2,4-DNPA
# [7] = noncompetitive inhibitor, read-out: Effectors / BPA
# [8] = uncompetitive inhibitor, read-out: Effectors / GP
# [9] = competitive inhibitor, read-out: Effectors / 2-AEP
molecule,measurement,setting,value
"CC(=O)Oc1ccc([N+](=O)[O-])cc1[N+](=O)[O-] [2,4-DNPA, 2,4-dinitrophenyl acetate]",Ki,[1]; [6],730 µM
same,Ki,[2]; [6],760 µM
"NCP(=O)(O)O [AMPA, aminomethylphosphonic acid]",Ka (activation constant),[3],43.5 mM
"CCCCP(=O)(O)O [BPA, butylphosphonic acid]",Ki,[1]; [7],390 µM
same,Ki,[2]; [7],300 µM
same,Ki,[4],750 µM
"O=C(O)CNCP(=O)(O)O [GP, N-phosphonomethylglycine]",Ki,[1]; [8],4000 µM
same,Ki,[2]; [8],5400 µM
same,Ki,[4]; read-out: Effectors / GP,11600 µM
"NCCP(=O)(O)O [compound 1, 2-aminoethylphosphonic acid]",Ki,[1]; [9],2200 µM
same,Ki,[2]; [9],2480 µM
same,Effectors / 2-AEP,[3],21 mM
B1,Km,[5],889 ± 138 µM
same,Vmax,[5],1.2 µmol/min/mg
same,kcat,[5],0.6 ± 0.1 s⁻¹
same,kcat/Km,[5],670 M⁻¹ s⁻¹
B2,Km,[5],641 ± 23 µM
same,Vmax,[5],1.12 µmol/min/mg
same,kcat,[5],0.56 ± 0.05 s⁻¹
same,kcat/Km,[5],875 M⁻¹ s⁻¹
